Earlier results on 1 compound are cited in patent US20100291221A1, “Method of administering dose-sparing amounts of formoterol fumarate-budesonide combination particles by inhalation” (priority 2009, published 2010).

The subject of one data set is adult asthmatics. The note with it: inhaled.
For data set [1] the following is noted: 9 ug Formoterol Fumarate alone (2 puffs); first treatment day.

SMILES strings stand for the structures.

On to `COc1ccc(C[C@@H](C)NC[C@H](O)c2ccc(O)c(NC=O)c2)cc1.COc1ccc(C[C@@H](C)NC[C@H](O)c2ccc(O)c(NC=O)c2)cc1.O=C(O)/C=C/C(=O)O` [Formoterol Fumarate, formoterol fumarate], for which the Minimum efficacy dose result in the data set on adult asthmatics (adult asthmatics) is “approximately 4 micrograms”. The “Level at which systemic b2 agonist effects begin to occur” value in the data set with adult asthmatics is reported as “above 12 micrograms”. In addition, in data set [1], the “Change in FEV1 at 15 minutes” value is listed as 11% and the “Change in FEV1 at 120 minutes” value was 18%.
